Measurements: ChEMBL document CHEMBL5291721, “A preclinical secondary pharmacology resource illuminates target-adverse drug reaction associations of marketed drugs” (Nat Commun, 2023)

Key:
Adenosine receptor A1 = biological target: T1, Adenosine receptor A1 (Homo sapiens, UniProt P30542)
T1 sequence (P30542 whole entry): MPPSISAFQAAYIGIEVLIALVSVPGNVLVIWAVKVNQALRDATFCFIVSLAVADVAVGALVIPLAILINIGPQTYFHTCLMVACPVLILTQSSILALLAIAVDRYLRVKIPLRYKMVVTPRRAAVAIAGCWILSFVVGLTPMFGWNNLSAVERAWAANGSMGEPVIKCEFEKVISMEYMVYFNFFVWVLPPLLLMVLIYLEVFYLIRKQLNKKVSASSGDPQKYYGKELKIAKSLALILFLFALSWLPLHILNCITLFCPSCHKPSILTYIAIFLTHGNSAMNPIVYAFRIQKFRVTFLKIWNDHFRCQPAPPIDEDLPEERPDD

Adenosine receptor A2a = Adenosine receptor A2a (Homo sapiens, UniProt P29274)
Sequence of Adenosine receptor A2a (P29274 whole entry): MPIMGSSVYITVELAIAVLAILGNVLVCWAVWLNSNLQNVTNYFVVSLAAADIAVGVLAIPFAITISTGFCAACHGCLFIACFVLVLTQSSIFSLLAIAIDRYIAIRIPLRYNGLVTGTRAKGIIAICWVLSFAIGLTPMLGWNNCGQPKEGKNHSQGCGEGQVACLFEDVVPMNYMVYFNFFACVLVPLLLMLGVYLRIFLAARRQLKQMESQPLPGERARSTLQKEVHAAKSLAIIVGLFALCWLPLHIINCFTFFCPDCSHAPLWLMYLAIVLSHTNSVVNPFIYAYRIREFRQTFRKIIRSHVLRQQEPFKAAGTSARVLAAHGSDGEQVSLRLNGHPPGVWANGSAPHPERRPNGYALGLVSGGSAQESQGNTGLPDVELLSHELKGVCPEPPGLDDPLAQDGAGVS

[1] = biological target: Beta-2 adrenergic receptor (Homo sapiens, UniProt P07550); format: functional, cell-based
Sequence of Beta-2 adrenergic receptor (P07550 whole entry): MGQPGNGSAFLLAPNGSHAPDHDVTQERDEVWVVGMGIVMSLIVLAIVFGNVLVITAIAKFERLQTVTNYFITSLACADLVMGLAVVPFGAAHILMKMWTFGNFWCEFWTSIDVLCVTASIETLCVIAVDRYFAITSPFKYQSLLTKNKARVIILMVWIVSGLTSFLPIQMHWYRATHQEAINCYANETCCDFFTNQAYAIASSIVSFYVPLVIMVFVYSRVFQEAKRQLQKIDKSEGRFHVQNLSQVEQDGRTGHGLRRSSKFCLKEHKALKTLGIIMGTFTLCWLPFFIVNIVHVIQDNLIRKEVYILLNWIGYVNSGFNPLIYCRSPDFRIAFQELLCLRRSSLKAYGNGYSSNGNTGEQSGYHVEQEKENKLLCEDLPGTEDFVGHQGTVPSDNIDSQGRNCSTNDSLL

[2] = biological target: T2, Gastrin/cholecystokinin type B receptor (Homo sapiens, UniProt P32239)
T2 sequence (P32239 whole entry): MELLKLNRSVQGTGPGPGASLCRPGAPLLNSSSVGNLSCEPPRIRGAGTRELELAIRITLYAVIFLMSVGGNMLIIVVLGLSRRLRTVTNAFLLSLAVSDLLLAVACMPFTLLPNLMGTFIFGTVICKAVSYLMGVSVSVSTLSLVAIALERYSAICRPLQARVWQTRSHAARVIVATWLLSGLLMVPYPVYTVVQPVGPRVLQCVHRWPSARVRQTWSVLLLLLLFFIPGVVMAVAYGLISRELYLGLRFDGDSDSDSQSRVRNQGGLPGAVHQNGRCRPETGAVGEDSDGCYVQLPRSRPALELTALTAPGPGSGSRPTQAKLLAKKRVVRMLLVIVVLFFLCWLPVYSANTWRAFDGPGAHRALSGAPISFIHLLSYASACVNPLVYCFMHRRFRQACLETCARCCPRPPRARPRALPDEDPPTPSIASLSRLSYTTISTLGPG

D(1A) dopamine receptor = D(1A) dopamine receptor (Homo sapiens, UniProt P21728); format: functional, cell-based
Sequence of D(1A) dopamine receptor (P21728 whole entry): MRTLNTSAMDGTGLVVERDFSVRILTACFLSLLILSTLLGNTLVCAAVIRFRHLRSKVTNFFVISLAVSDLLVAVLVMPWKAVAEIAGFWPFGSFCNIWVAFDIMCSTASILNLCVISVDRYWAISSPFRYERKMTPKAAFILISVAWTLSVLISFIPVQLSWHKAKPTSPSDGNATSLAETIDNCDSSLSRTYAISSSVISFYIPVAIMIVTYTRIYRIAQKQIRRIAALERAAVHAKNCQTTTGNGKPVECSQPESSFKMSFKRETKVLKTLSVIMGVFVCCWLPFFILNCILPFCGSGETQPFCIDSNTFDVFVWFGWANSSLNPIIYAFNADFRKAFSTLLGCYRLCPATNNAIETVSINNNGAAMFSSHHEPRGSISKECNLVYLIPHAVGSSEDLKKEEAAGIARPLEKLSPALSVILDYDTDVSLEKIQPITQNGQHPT

[3] = biological target: 5-hydroxytryptamine receptor 2B (Homo sapiens, UniProt P41595); format: functional, cell-based
Sequence of 5-hydroxytryptamine receptor 2B (P41595 whole entry): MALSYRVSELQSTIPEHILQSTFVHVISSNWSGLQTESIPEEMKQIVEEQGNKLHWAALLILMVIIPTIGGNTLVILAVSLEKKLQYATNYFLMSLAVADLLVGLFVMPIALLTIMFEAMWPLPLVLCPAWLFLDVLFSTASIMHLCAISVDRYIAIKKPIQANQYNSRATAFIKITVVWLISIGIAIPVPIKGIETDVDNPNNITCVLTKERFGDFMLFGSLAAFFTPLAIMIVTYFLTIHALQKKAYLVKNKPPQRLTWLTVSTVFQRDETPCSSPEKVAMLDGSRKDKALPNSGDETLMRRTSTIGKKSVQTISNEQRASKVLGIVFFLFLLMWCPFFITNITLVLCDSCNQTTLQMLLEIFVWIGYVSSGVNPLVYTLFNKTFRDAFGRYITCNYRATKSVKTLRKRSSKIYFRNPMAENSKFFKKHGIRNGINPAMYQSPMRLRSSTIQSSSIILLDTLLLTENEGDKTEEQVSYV

Melanocortin receptor 3 = Melanocortin receptor 3 (Homo sapiens, UniProt P41968)
Sequence of Melanocortin receptor 3 (P41968 whole entry): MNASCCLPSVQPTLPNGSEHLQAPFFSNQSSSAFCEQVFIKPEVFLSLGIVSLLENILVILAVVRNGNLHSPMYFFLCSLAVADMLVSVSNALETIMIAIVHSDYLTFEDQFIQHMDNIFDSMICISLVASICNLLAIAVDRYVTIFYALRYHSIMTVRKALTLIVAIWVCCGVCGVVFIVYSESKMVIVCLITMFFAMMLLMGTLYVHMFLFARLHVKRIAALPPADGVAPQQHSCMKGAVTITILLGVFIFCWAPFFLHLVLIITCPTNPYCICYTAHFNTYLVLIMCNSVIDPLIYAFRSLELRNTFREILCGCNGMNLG

[4] = biological target: 3',5'-cyclic-AMP phosphodiesterase 4D (Homo sapiens, UniProt Q08499); format: functional
Sequence of 3',5'-cyclic-AMP phosphodiesterase 4D (Q08499 whole entry): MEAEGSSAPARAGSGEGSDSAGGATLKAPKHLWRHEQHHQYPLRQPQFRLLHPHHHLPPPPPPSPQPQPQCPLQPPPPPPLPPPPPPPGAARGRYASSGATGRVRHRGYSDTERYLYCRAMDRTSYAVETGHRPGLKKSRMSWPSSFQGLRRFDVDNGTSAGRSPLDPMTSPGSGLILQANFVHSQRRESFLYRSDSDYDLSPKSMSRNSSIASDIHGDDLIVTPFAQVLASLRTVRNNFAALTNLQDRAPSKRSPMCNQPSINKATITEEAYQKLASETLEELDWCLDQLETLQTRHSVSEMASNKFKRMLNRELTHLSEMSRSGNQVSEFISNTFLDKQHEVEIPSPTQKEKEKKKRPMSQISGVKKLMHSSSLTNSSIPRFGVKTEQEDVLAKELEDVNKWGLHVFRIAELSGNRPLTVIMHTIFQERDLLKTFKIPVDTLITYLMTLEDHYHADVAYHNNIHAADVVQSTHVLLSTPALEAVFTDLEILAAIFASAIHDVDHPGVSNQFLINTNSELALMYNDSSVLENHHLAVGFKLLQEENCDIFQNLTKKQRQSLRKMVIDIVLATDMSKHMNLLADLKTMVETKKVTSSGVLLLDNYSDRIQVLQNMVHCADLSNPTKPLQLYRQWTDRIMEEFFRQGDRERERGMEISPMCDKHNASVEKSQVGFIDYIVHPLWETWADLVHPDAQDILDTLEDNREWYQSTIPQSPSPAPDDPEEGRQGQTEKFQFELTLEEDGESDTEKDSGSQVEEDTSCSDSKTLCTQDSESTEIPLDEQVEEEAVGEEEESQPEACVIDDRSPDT

Histamine H3 receptor = Histamine H3 receptor (Homo sapiens, UniProt Q9Y5N1)
Sequence of Histamine H3 receptor (Q9Y5N1 whole entry): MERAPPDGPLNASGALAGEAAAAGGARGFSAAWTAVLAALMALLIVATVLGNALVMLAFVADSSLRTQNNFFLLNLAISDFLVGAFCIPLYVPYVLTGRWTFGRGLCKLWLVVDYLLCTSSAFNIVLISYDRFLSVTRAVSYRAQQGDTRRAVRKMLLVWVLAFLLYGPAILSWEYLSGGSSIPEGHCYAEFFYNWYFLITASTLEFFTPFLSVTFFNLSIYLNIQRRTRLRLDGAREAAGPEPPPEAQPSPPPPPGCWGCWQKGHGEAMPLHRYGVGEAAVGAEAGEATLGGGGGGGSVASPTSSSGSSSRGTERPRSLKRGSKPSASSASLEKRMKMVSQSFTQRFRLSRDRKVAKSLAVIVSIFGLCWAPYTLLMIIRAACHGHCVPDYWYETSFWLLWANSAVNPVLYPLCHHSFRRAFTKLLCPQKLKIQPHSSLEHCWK

[5] = biological target: 5-hydroxytryptamine receptor 2A (Homo sapiens, UniProt P28223); format: functional, cell-based
Sequence of 5-hydroxytryptamine receptor 2A (P28223 whole entry): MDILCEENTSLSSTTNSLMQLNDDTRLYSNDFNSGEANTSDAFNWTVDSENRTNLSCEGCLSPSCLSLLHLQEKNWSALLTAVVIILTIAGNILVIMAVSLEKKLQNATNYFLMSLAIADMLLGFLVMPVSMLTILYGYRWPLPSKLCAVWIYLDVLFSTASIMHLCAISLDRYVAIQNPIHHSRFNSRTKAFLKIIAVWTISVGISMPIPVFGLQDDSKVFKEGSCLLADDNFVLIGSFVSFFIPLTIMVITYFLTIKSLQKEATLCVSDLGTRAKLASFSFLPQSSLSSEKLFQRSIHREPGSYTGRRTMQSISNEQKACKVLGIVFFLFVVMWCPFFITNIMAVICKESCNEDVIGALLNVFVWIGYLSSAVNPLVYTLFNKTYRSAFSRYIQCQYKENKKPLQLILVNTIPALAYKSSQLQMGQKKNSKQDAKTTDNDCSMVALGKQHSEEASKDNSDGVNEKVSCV

Mu-type opioid receptor = Mu-type opioid receptor (Homo sapiens, UniProt P35372); assay: biochemical; format: functional
Sequence of Mu-type opioid receptor (P35372 whole entry): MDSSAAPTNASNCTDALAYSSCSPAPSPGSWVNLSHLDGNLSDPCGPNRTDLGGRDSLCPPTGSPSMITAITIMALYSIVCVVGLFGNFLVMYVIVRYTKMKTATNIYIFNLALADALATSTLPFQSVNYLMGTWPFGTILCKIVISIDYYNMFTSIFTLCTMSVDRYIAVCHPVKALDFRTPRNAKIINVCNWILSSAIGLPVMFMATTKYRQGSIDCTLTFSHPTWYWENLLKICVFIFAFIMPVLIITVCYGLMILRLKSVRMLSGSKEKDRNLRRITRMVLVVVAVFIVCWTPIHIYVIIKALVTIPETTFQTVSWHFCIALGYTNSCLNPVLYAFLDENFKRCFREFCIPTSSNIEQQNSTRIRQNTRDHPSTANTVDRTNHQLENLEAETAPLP

Cannabinoid receptor 1 = Cannabinoid receptor 1 (Homo sapiens, UniProt P21554)
Sequence of Cannabinoid receptor 1 (P21554 whole entry): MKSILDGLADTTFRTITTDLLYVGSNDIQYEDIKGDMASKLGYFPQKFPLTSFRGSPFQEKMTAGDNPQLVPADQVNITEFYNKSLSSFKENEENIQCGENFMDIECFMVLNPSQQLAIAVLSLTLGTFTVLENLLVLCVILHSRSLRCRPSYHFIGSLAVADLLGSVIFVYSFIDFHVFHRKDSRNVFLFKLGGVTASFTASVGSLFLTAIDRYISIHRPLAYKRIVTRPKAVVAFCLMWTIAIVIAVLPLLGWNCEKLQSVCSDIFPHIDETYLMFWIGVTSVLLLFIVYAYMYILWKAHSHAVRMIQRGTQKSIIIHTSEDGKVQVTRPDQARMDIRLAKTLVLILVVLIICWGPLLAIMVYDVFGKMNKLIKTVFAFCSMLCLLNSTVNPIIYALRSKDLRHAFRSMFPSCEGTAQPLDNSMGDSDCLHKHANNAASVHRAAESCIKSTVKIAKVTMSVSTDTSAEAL

Estrogen receptor = biological target: T3, Estrogen receptor (Homo sapiens, UniProt P03372)
T3 sequence (P03372 whole entry): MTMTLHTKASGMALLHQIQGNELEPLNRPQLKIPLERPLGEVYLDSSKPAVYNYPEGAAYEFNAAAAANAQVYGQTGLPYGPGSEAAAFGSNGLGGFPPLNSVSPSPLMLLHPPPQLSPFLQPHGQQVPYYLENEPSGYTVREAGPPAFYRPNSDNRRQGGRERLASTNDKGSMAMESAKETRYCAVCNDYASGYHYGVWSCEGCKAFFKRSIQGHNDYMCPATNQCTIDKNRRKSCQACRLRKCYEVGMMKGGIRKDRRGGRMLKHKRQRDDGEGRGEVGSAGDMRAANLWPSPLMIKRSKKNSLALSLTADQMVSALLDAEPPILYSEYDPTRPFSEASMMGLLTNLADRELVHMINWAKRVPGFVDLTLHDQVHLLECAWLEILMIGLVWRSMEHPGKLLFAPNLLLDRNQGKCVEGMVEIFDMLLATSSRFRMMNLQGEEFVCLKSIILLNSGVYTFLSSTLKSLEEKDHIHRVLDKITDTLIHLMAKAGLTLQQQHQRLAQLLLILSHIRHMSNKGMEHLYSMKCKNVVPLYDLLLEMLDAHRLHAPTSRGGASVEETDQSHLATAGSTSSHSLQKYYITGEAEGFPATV

[6] = biological target: T4, 5-hydroxytryptamine receptor 1A (Homo sapiens, UniProt P08908); format: functional, cell-based
T4 sequence (P08908 whole entry): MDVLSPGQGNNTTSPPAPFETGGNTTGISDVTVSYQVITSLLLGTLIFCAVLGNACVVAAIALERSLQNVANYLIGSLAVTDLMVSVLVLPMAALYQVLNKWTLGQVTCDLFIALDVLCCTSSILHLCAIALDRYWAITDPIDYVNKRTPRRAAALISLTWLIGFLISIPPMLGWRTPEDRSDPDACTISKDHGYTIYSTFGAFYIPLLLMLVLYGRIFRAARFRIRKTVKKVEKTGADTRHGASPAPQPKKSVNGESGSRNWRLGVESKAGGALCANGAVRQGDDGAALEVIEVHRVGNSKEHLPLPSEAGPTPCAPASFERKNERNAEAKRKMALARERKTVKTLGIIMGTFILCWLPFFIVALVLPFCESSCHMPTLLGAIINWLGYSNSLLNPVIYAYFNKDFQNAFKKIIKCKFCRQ

Measured: AC50
Further: assay procedure not described here.

COc1ccc(-n2nc(C(N)=O)c3c2C(=O)N(c2ccc(N4CCCCC4=O)cc2)CC3)cc1 [APIXABAN]
not listed: [5] | Mu-type opioid receptor | Cannabinoid receptor 1 | Estrogen receptor | [6]
> 30 µM: all other assays above

CO/N=C(\C(=O)N[C@@H]1C(=O)N2C(C(=O)[O-])=C(C[n+]3ccc(N)n3CCO)CS[C@H]12)c1csc(N)n1 [CEFOSELIS]
not listed: [1] | Cannabinoid receptor 1 | Estrogen receptor | [6]
> 30 µM: all other assays above

C[C@@H](Cc1ccccc1)N(C)Cc1ccccc1 [BENZPHETAMINE]
> 30 µM: [4]
22 µM: [5]
not listed: [1] | [2] | Mu-type opioid receptor | [6]
> 10 µM: all other assays above

CCCCOC(=O)c1ccc(N)cc1 [BUTAMBEN]
26 µM: [4]
not listed: [1] | [5] | Cannabinoid receptor 1
> 30 µM: all other assays above

CCCCCCOC(=O)NC(=N)c1ccc(NCc2nc3cc(C(=O)N(CCC(=O)OCC)c4ccccn4)ccc3n2C)cc1 [DABIGATRAN ETEXILATE]
not listed: Mu-type opioid receptor | Cannabinoid receptor 1 | Estrogen receptor | [6]
> 30 µM: all other assays above

COC(=O)[C@H]1[C@H]2C[C@@H]3c4[nH]c5ccccc5c4CCN3C[C@H]2C[C@@H](OC(=O)c2cc(OC)c(OC)c(OC)c2)[C@@H]1OC [DESERPIDINE]
> 10 µM: Cannabinoid receptor 1 | D(1A) dopamine receptor | [6] | [5] | [3]
not listed: [1] | Histamine H3 receptor | Mu-type opioid receptor
> 30 µM: all other assays above

CC(=O)Oc1cccc2c1C(=O)c1c(OC(C)=O)cc(C(=O)O)cc1C2=O [DIACEREIN]
24 µM: Adenosine receptor A1 | Adenosine receptor A2a
18 µM: [5]
> 30 µM: [2] | D(1A) dopamine receptor | Melanocortin receptor 3 | Mu-type opioid receptor | Histamine H3 receptor
8.8 µM: [4]

CCN(CC)Cc1nccn1-c1ccc([N+](=O)[O-])cc1C(=O)c1ccccc1Cl [NIZOFENONE]
not listed: [1] | Cannabinoid receptor 1 | Estrogen receptor | [6]
> 30 µM: all other assays above

Nc1cc(N2CCCCC2)nc(N)[n+]1[O-] [MINOXIDIL]
> 10 µM: Cannabinoid receptor 1 | [3] | Histamine H3 receptor
not listed: [5] | Mu-type opioid receptor | [6]
> 30 µM: all other assays above

CC1=C(/C=C/C(C)=C/C=C/C(C)=C/C(=O)Oc2c(C)c(C)c3c(c2C)CCC(C)(CCCC(C)CCCC(C)CCCC(C)C)O3)C(C)(C)CCC1 (stereo not given) [TRETINOIN TOCOFERIL]
not listed: [1] | Cannabinoid receptor 1 | [6]
> 30 µM: all other assays above

CNCCc1ccccn1 [BETAHISTINE]
11 µM: Histamine H3 receptor
not listed: [1] | [5] | Cannabinoid receptor 1 | Estrogen receptor
> 30 µM: all other assays above

CO/N=C(\C(=O)N[C@@H]1C(=O)N2C(C(=O)O)=C(CSc3nc(C)c(CC(=O)O)s3)CS[C@H]12)c1csc(N)n1 [CEFODIZIME]
not listed: [1] | Cannabinoid receptor 1 | [6]
> 30 µM: all other assays above

COc1cc(N)cn[n+]1-c1ccccc1 [AMEZINIUM METILSULFATE]
9.1 µM: [6]
not listed: [1] | Cannabinoid receptor 1 | Estrogen receptor
> 30 µM: all other assays above

CC(C(=O)O)c1ccc(C(=O)c2ccccc2)s1 (stereo not given) [TIAPROFENIC ACID]
> 30 µM: [1] | [5] | [4]
not listed: [2] | Mu-type opioid receptor
> 10 µM: all other assays above

CCC1(CC)C(=O)NC(=O)N(C)C1=O [METHARBITAL]
> 30 µM: [4]
not listed: [1] | [2] | Mu-type opioid receptor
> 10 µM: all other assays above

CC1Cc2ccccc2N1NC(=O)c1ccc(Cl)c(S(N)(=O)=O)c1 (stereo not given) [INDAPAMIDE]
> 10 µM: Cannabinoid receptor 1 | D(1A) dopamine receptor | [3] | [4] | Histamine H3 receptor
not listed: [5] | Mu-type opioid receptor | [6]
> 30 µM: all other assays above

OCC(O)COc1ccc(Cl)cc1 (stereo not given)
> 30 µM: [4]
not listed: [1] | [2] | Mu-type opioid receptor
> 10 µM: all other assays above

O=C(C[S+]([O-])Cc1ccco1)NC/C=C\COc1cc(CN2CCCCC2)ccn1 (stereo not given) [LAFUTIDINE]
> 30 µM: [6] | [5] | [4]
not listed: [1] | [2] | Mu-type opioid receptor
> 10 µM: all other assays above
